Experimental data published in US20220184172A1, “AMPK/CASPASE-6 AXIS CONTROLS LIVER DAMAGE IN NONALCOHOLIC STEATOHEPATITIS” (The Regents of the University of California, priority 2019, published 2022).

Legend:
CD-HFD fed C57BL/6J mice = test: AMPK agonist A-769662 in CD-HFD-induced NASH, C57BL/6J mice; format: in vivo
Procedure: FIGS. 4A-4L. Both an AMPK agonist and a caspase-6 inhibitor therapeutically improve liver damage. FIG. 4A-4I. C57BL/6J mice were fed CD-HFD for 6 weeks, followed by intraperitoneally injection of 25 mg/kg A-769662 or vehicle daily for 2 weeks while continuous CD-HFD. FIG. 4A. Liver sections stained as indicated: TUNEL and DAPI. In the merged image section, the different stains correspond to the grayscale shades as indicated in the single stained images to the left. Scale bar=50 μm. FIG. 4B. Quantification of TUNEL-positive nuclei per field in FIG. 4A. n=7. FIG. 4C-4E. Serum ALT (FIG. 4C), AST (FIG. 4D) and ALP (FIG. 4E). n=7. FIG. 4F. H&E and Sirius red staining of liver sections as indicated. Scale bar=100 μm. FIG. 4G. Quantification of liver fibrosis area (% of total area) in FIG. 4F. n=7. FIG. 4H. Liver hydroxyproline. n=8. FIG. 4I. Expression of Tgfb, Timp1, Col1a1, Col3a1, Pdgfa, Pdgfb, Pdgfra and Ddr2 in livers. n=8. *, P<0.05, Student's unpaired t test. FIGS. 4J-4L. Flox and LAKO mice were fed CD-HFD for 6 weeks, followed by intraperitoneally injection of 5 mg/kg VEID (SEQ ID NO: 71) or vehicle every other day for 2 weeks while continuous feeding. FIG. 4J. Liver sections stained as indicated (TUNEL and DAPI); in the merged image sections, the different stains correspond to the grayscale shades as indicated in the single stained images to the left. Scale bar=50 μm. FIG. 4K. Quantification of TUNEL-positive nuclei per field in FIG. 4J. n=5-6. FIG. 4L. Serum ALT. n=5-6. Mean±SEM. *, P<0.05, two-way ANOVA. FIG. 4 discloses “VEID” as SEQ ID NO: 71.
FIGS. 5A-5K. AMPK phosphorylates caspase-6 to inhibit its cleavage and activation. FIG. 5A. Primary hepatocytes were pretreated 40 μM A-769662 for 1 hr, then treated 30 μg/ml CHX and 50 ng/ml TNFα for 2 hrs. IB analysis of cell lysates. n=3. Mean±SD. *, P<0.05, two-way ANOVA. FIG. 5B. Primary hepatocytes were pretreated 40 μM A-769662 for 1 hr, then treated 250 μM BSA-conjugated palmitic acid (PA) for 2 hrs. Cell lysates were subject to caspase-6 activity assay. Mean±SD. *, P<0.05. FIG. 5C. Caspase-6 Ser^257 locates within AMPK substrate motif. FIG. 5C. discloses SEQ ID NOS 57-63, respectively, in order of appearance. FIG. 5D. In vitro kinase assay using recombinant caspase-6, and recombinant AMPKα1β1γ1 or AMPKα2β1γ1 active kinase. FIG. 5E. Alignment of caspase-6 sequence. FIG. 5E. discloses SEQ ID NOS 64-67, respectively, in order of appearance. FIG. 5F. HEK293T cells overexpressing caspase-6-myc WT, S^257A, S^257D or S^257E mutant were treated with 10 μg/ml CHX and 25 ng/ml TNFα for 2 hrs. IB analysis of cell lysates. FIGS. 5G-5J. C57BL/6J mice were fed CD-HFD for 6 weeks, followed by intraperitoneally injection of 25 mg/kg A-769662 or vehicle daily for 2 weeks while continuous CD-HI-D. Mice were sacrificed 6 hrs after last injection. FIG. 5G. IB analysis of liver lysates. n=5. FIG. 5H. Liver lysates were subject to caspase-6 activity assay. n=7. FIG. 5I. Liver sections stained as indicated therein (aCasp6 and DAPI); in the merged image sections, the different stains correspond to the grayscale shades as indicated in the single stained images to the left. Scale bar=50 μm. FIG. 5J. Quantification of aCasp6 staining per field in FIG. 5I. n=7. Mean±SEM. *, P<0.05, Student's unpaired t test. FIG. 5K. IB analysis of liver lysates from C57BL/6J mice fed ND or CD-HFD. Note: AMPK and pAMPK blots are the same as in FIG. 1B.
FIGS. 13A-13I. A-769662 improves liver damage through AMPK activation in hepatocytes in NASH. C57BL/6J mice were fed with CD-HFD for 8 weeks. After 6 weeks of CD-HFD feeding, mice were intraperitoneally injected with 25 mg/kg A-769662 or vehicle daily for 2 weeks along with continuous CD-HFD feeding. FIG. 13A. Schematic diagram of experimental design. FIG. 13B-13C. Body weight (FIG. 13B) and liver weight (FIG. 13C) of indicated mice. n=7. FIG. 13D. Measurement of liver triglyceride (TG) of indicated mice. n=7. FIG. 13E. […]

[1] = tested on: caspase-6 activity in primary hepatocytes; test: Caspase-6 activity induced by palmitic acid in primary hepatocytes; format: cell-based, mice; settings: 40 μM pretreatment 1 hr, then 250 μM BSA-conjugated palmitic acid 2 hrs
Procedure: FIGS. 5A-5K. AMPK phosphorylates caspase-6 to inhibit its cleavage and activation. FIG. 5A. Primary hepatocytes were pretreated 40 μM A-769662 for 1 hr, then treated 30 μg/ml CHX and 50 ng/ml TNFα for 2 hrs. IB analysis of cell lysates. n=3. Mean±SD. *, P<0.05, two-way ANOVA. FIG. 5B. Primary hepatocytes were pretreated 40 μM A-769662 for 1 hr, then treated 250 μM BSA-conjugated palmitic acid (PA) for 2 hrs. Cell lysates were subject to caspase-6 activity assay. Mean±SD. *, P<0.05. FIG. 5C. Caspase-6 Ser^257 locates within AMPK substrate motif. FIG. 5C. discloses SEQ ID NOS 57-63, respectively, in order of appearance. FIG. 5D. In vitro kinase assay using recombinant caspase-6, and recombinant AMPKα1β1γ1 or AMPKα2β1γ1 active kinase. FIG. 5E. Alignment of caspase-6 sequence. FIG. 5E. discloses SEQ ID NOS 64-67, respectively, in order of appearance. FIG. 5F. HEK293T cells overexpressing caspase-6-myc WT, S^257A, S^257D or S^257E mutant were treated with 10 μg/ml CHX and 25 ng/ml TNFα for 2 hrs. IB analysis of cell lysates. FIGS. 5G-5J. […] Quantification of aCasp6 staining per field in FIG. 5I. n=7. […]
Cell/tissue was homogenized with lysis buffer. Caspase-6 activity was determined with Caspase-6 Colorimetric Assay Kit (Biovision, Cat. K115), according to manufacturer's instruction. […]

[2] = 25 mg/kg i.p. daily for 2 weeks, CD-HFD
[3] = 25 mg/kg i.p. daily for 2 weeks, CD-HFD, sacrificed 6 hrs after last injection
[4] = 25 mg/kg i.p. once per day for two weeks after 6 weeks CD-HFD

induction of caspase-6 activity by PA [1]: inhibited
SMILES: N#Cc1c(O)c2c(-c3ccc(-c4ccccc4O)cc3)csc2[nH]c1=O [A-769662]
hepatic fibrosis (Sirius red fibrosis area, liver hydroxyproline) (CD-HFD fed C57BL/6J mice; 25 mg/kg i.p. daily for 2 weeks after 6 weeks CD-HFD): attenuated
expression of Col1a1 in liver (CD-HFD fed C57BL/6J mice; [2]): significantly reduced
expression of Col3a1 in liver (CD-HFD fed C57BL/6J mice; [2]): significantly reduced
expression of Ddr2 in liver (CD-HFD fed C57BL/6J mice; [2]): without effect
expression of Pdgfa in liver (CD-HFD fed C57BL/6J mice; [2]): significantly reduced
expression of Pdgfb in liver (CD-HFD fed C57BL/6J mice; [2]): significantly reduced
expression of Pdgfra in liver (CD-HFD fed C57BL/6J mice; [2]): significantly reduced
expression of Tgfb in liver (CD-HFD fed C57BL/6J mice; [2]): without effect
expression of inflammation marker gene Adgre1 in liver (CD-HFD fed C57BL/6J mice; [2]): without effect
expression of inflammation marker gene Ccl2 in liver (CD-HFD fed C57BL/6J mice; [2]): without effect
aCasp6 (active caspase-6) staining of liver sections (CD-HFD fed C57BL/6J mice; 25 mg/kg i.p. daily for 2 weeks, CD-HFD-induced NASH): decreased
caspase-6 activity in vivo (liver lysates) (CD-HFD fed C57BL/6J mice; [3]): decreased
procaspase-6 Ser257 phosphorylation (IB of liver lysates) (CD-HFD fed C57BL/6J mice; [3]): significantly increased
hepatic TG (CD-HFD fed C57BL/6J mice; [4]): no effect
liver damage (serum ALT, AST, ALP) (CD-HFD fed C57BL/6J mice; [4]): improved
number of apoptotic cells (TUNEL-positive nuclei per field) (CD-HFD fed C57BL/6J mice; [4]): significantly reduced
